Laboratory results published in ChEMBL document CHEMBL1141382, “Studies leading to potent, dual inhibitors of Bcl-2 and Bcl-xL” (J Med Chem, 2007).

How the values were obtained:
[1] = target: T1, Bcl-2-like protein 1 (Homo sapiens, UniProt Q07817); assay: Displacement of Bad-derived peptide from Bcl-xL by fluorescence polarization assay
[2] = target: Apoptosis regulator Bcl-2 (Homo sapiens, UniProt P10415); assay: Displacement of Bax-derived peptide from Bcl2 by fluorescence polarization assay
[3] = target: T1, Bcl-2-like protein 1; assay: Displacement of Bad-derived peptide from Bcl-xL by FPA in presence of 10% human serum
[4] = test system: FL5.12; assay: Reversal of cytokine withdrawal protection in IL3 dependent Bcl-xL overexpressing mouse FL5.12 cells in presence of 3% FBS; assay type: functional

T1 sequence (Q07817 whole entry): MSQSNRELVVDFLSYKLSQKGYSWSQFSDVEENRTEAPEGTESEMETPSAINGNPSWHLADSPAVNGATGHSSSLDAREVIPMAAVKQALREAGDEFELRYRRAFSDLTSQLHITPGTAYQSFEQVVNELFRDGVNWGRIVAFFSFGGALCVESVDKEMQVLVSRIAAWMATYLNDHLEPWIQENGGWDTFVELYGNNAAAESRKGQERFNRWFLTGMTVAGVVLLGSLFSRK
Apoptosis regulator Bcl-2, sequence (P10415 whole entry): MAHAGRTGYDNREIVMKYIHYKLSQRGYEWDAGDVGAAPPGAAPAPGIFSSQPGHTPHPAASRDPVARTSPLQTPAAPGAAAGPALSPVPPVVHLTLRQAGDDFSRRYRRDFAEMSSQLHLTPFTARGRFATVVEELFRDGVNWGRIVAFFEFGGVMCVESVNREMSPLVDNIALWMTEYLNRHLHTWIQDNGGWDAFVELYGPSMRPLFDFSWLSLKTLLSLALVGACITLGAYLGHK

SMILES	Ki [1] [nM]	Ki [2] [nM]	IC50 [3] [nM]	EC50 [4] [nM]	IC50 [1] [nM]
COC1(CC(C)(C)C)CCN(c2ccc(C(=O)NS(=O)(=O)c3ccc(N[C@H](CCN(C)C)CSc4ccccc4)c([N+](=O)[O-])c3)cc2)CC1	4.6	16	440	–	–
COC1(Cc2ccccc2-c2ccccc2)CCN(c2ccc(C(=O)NS(=O)(=O)c3ccc(N[C@H](CCN(C)C)CSc4ccccc4)c([N+](=O)[O-])c3)cc2)CC1	< 0.5	< 1	< 60	–	–
COC1(Cc2ccc(-c3ccccc3)cc2)CCN(c2ccc(C(=O)NS(=O)(=O)c3ccc(N[C@H](CCN(C)C)CSc4ccccc4)c([N+](=O)[O-])c3)cc2)CC1	0.9	< 1	160	–	–
CN(C)CC[C@H](CSc1ccccc1)Nc1ccc(S(=O)(=O)NC(=O)c2ccc(N3CCC(=Cc4ccccn4)CC3)cc2)cc1[N+](=O)[O-]	3.6	46	700	–	–
CN(C)CC[C@H](CSc1ccccc1)Nc1ccc(S(=O)(=O)NC(=O)c2ccc(N3CCC(=Cc4ccccc4-c4ccccc4)CC3)cc2)cc1[N+](=O)[O-]	< 0.5	< 1	83	–	–
CN(C)CC[C@H](CSc1ccccc1)Nc1ccc(S(=O)(=O)NC(=O)c2ccc(N3CCN(Cc4ccccc4NC4CCCCC4)CC3)cc2)cc1[N+](=O)[O-]	0.6	3.5	370	–	–
COc1ccccc1CC1(OC)CCN(c2ccc(C(=O)NS(=O)(=O)c3ccc(N[C@H](CCN(C)C)CSc4ccccc4)c([N+](=O)[O-])c3)cc2)CC1	1.1	1.6	75	–	–
COC1(CC(C)C)CCN(c2ccc(C(=O)NS(=O)(=O)c3ccc(N[C@H](CCN(C)C)CSc4ccccc4)c([N+](=O)[O-])c3)cc2)CC1	6.1	56	360	–	–
CN(C)CC[C@H](CSc1ccccc1)Nc1ccc(S(=O)(=O)NC(=O)c2ccc(N3CCC(=Cc4ccccc4F)CC3)cc2)cc1[N+](=O)[O-]	< 0.5	2.5	750	–	–
COC1(Cc2ccccc2)CCN(c2ccc(C(=O)NS(=O)(=O)c3ccc(N[C@H](CCN(C)C)CSc4ccccc4)c([N+](=O)[O-])c3)cc2)CC1	1.8	8.1	150	–	–
CN(C)CC[C@H](CSc1ccccc1)Nc1ccc(S(=O)(=O)NC(=O)c2ccc(N3CCC4(CC3)CC(c3ccccc3)=NO4)cc2)cc1[N+](=O)[O-]	4.4	35.2	–	–	–
CN(C)CC[C@H](CSc1ccccc1)Nc1ccc(S(=O)(=O)NC(=O)c2ccc(N3CCC(=Cc4ccc(Cl)cc4)CC3)cc2)cc1[N+](=O)[O-]	< 0.5	2.1	510	–	–
CCCCCC1(OC)CCN(c2ccc(C(=O)NS(=O)(=O)c3ccc(N[C@H](CCN(C)C)CSc4ccccc4)c([N+](=O)[O-])c3)cc2)CC1	1.3	20	312	–	–
CN(C)CC[C@H](CSc1ccccc1)Nc1ccc(S(=O)(=O)NC(=O)c2ccc(N3CCC(=Cc4ccccc4Cl)CC3)cc2)cc1[N+](=O)[O-]	< 0.5	0.7	700	–	–
CN(C)CC[C@H](CSc1ccccc1)Nc1ccc(S(=O)(=O)NC(=O)c2ccc(N3CCC(=Cc4cccnc4)CC3)cc2)cc1[N+](=O)[O-]	1.3	68	2800	–	–
CN(C)CC[C@H](CSc1ccccc1)Nc1ccc(S(=O)(=O)NC(=O)c2ccc(N3CCN(Cc4ccccc4N4CCOCC4)CC3)cc2)cc1[N+](=O)[O-]	< 0.5	< 1	< 60	–	–
COC1(Cc2cccc(Cl)c2)CCN(c2ccc(C(=O)NS(=O)(=O)c3ccc(N[C@H](CCN(C)C)CSc4ccccc4)c([N+](=O)[O-])c3)cc2)CC1	< 0.5	1.8	170	–	–
COC1(Cc2ccccc2C)CCN(c2ccc(C(=O)NS(=O)(=O)c3ccc(N[C@H](CCN(C)C)CSc4ccccc4)c([N+](=O)[O-])c3)cc2)CC1	< 0.5	1.4	71	–	–
CN(C)CC[C@H](CSc1ccccc1)Nc1ccc(S(=O)(=O)NC(=O)c2ccc(N3CCC(=Cc4ccccc4C(F)(F)F)CC3)cc2)cc1[N+](=O)[O-]	< 0.5	2	300	–	–
COc1ccccc1C=C1CCN(c2ccc(C(=O)NS(=O)(=O)c3ccc(N[C@H](CCN(C)C)CSc4ccccc4)c([N+](=O)[O-])c3)cc2)CC1	0.6	2	760	–	–
CC1OC2(CCN(c3ccc(C(=O)NS(=O)(=O)c4ccc(N[C@H](CCN(C)C)CSc5ccccc5)c([N+](=O)[O-])c4)cc3)CC2)N(Cc2ccccc2)C1=O (some centres not stated)	3.7	9.6	–	–	–
CN(C)CC[C@H](CSc1ccccc1)Nc1ccc(S(=O)(=O)NC(=O)c2ccc(N3CCN(Cc4ccccc4)CC3)cc2)cc1[N+](=O)[O-]	2.6	39.8	350	–	–
CN(C)CC[C@H](CSc1ccccc1)Nc1ccc(S(=O)(=O)NC(=O)c2ccc(N3CCC(=Cc4ccc(F)cc4)CC3)cc2)cc1[N+](=O)[O-]	< 0.5	3.4	520	–	–
CN(C)CC[C@H](CSc1ccccc1)Nc1ccc(S(=O)(=O)NC(=O)c2ccc(N3CCN(C(=O)c4ccccc4)CC3)cc2)cc1[N+](=O)[O-]	< 1	61.9	–	–	–
COc1ccccc1CN1CCN(c2ccc(C(=O)NS(=O)(=O)c3ccc(N[C@H](CCN(C)C)CSc4ccccc4)c([N+](=O)[O-])c3)cc2)CC1	< 0.5	3.2	80	–	–
Cc1ccccc1CN1CCN(c2ccc(C(=O)NS(=O)(=O)c3ccc(N[C@H](CCN(C)C)CSc4ccccc4)c([N+](=O)[O-])c3)cc2)CC1	3	4.5	140	–	–
COC1(Cc2ccccc2Br)CCN(c2ccc(C(=O)NS(=O)(=O)c3ccc(N[C@H](CCN(C)C)CSc4ccccc4)c([N+](=O)[O-])c3)cc2)CC1	< 0.5	1.5	< 60	–	–
CN(C)CC[C@H](CSc1ccccc1)Nc1ccc(S(=O)(=O)NC(=O)c2ccc(N3CCN(Cc4ccccc4S(C)(=O)=O)CC3)cc2)cc1[N+](=O)[O-]	0.9	4.6	170	–	–
Cc1ccc(S(=O)(=O)N2CCN(c3ccc(C(=O)NS(=O)(=O)c4ccc(N[C@H](CCN(C)C)CSc5ccccc5)c([N+](=O)[O-])c4)cc3)CC2)cc1	4	6.1	–	–	–
CN(C)CC[C@H](CSc1ccccc1)Nc1ccc(S(=O)(=O)NC(=O)c2ccc(N3CCN(Cc4ccccc4-c4ccc(Cl)cc4)CC3)cc2)cc1[N+](=O)[O-] [ABT 737]	–	–	–	220	–

Other lines, results leading:

Ki [1] [nM]	Ki [2] [nM]	IC50 [3] [nM]	EC50 [4] [nM]	IC50 [1] [nM]	SMILES
< 0.5	1	81	–	–	CN(C)CC[C@H](CSc1ccccc1)Nc1ccc(S(=O)(=O)NC(=O)c2ccc(N3CCN(Cc4ccccc4-c4cccnc4)CC3)cc2)cc1[N+](=O)[O-]
< 0.5	< 1	85	–	–	CN(C)CC[C@H](CSc1ccccc1)Nc1ccc(S(=O)(=O)NC(=O)c2ccc(N3CCN(Cc4ccccc4C(F)(F)F)CC3)cc2)cc1[N+](=O)[O-]
< 0.5	< 1	< 60	–	–	CSc1ccccc1CN1CCN(c2ccc(C(=O)NS(=O)(=O)c3ccc(N[C@H](CCN(C)C)CSc4ccccc4)c([N+](=O)[O-])c3)cc2)CC1
1.4	9.4	1300	–	–	CN(C)CC[C@H](CSc1ccccc1)Nc1ccc(S(=O)(=O)NC(=O)c2ccc(N3CCC(=Cc4ccc(C(F)(F)F)cc4)CC3)cc2)cc1[N+](=O)[O-]
–	< 1	< 60	6700	9.1	CN(C)CC[C@H](CSc1ccccc1)Nc1ccc(S(=O)(=O)NC(=O)c2ccc(N3CCN(Cc4ccccc4-c4ccc(S(C)(=O)=O)cc4)CC3)cc2)cc1[N+](=O)[O-]
< 0.5	13	520	–	–	CN(C)CC[C@H](CSc1ccccc1)Nc1ccc(S(=O)(=O)NC(=O)c2ccc(N3CCC(=Cc4ccccc4C#N)CC3)cc2)cc1[N+](=O)[O-]
< 0.5	< 1	61	–	–	CN(C)CC[C@H](CSc1ccccc1)Nc1ccc(S(=O)(=O)NC(=O)c2ccc(N3CCN(Cc4ccccc4C4CCCCC4)CC3)cc2)cc1[N+](=O)[O-]
0.8	6.6	300	–	–	COC1(CC2CCCCC2)CCN(c2ccc(C(=O)NS(=O)(=O)c3ccc(N[C@H](CCN(C)C)CSc4ccccc4)c([N+](=O)[O-])c3)cc2)CC1
< 0.5	< 1	< 60	1200	–	CN(C)CC[C@H](CSc1ccccc1)Nc1ccc(S(=O)(=O)NC(=O)c2ccc(N3CCN(Cc4ccccc4-c4ccccc4)CC3)cc2)cc1[N+](=O)[O-]
0.9	2.7	200	–	–	COC1(Cc2ccc(Cl)cc2)CCN(c2ccc(C(=O)NS(=O)(=O)c3ccc(N[C@H](CCN(C)C)CSc4ccccc4)c([N+](=O)[O-])c3)cc2)CC1
0.9	3.1	79	–	–	COC1(Cc2ccccc2F)CCN(c2ccc(C(=O)NS(=O)(=O)c3ccc(N[C@H](CCN(C)C)CSc4ccccc4)c([N+](=O)[O-])c3)cc2)CC1
< 0.5	< 1	< 60	120	–	CN(C)CC[C@H](CSc1ccccc1)Nc1ccc(S(=O)(=O)NC(=O)c2ccc(N3CCN(Cc4ccccc4-c4ccc(C(F)(F)F)cc4)CC3)cc2)cc1[N+](=O)[O-]
1.7	6.5	–	–	–	CN(C)CC[C@H](CSc1ccccc1)Nc1ccc(S(=O)(=O)NC(=O)c2ccc(N3CCC4(CC3)CC(Cc3ccccc3)=NO4)cc2)cc1[N+](=O)[O-]
0.8	–	360	–	–	CC1(C)CCN(c2ccc(C(=O)NS(=O)(=O)c3ccc(NC(C)(C)CSc4ccccc4)c([N+](=O)[O-])c3)cc2)CC1
< 0.5	< 1	62	–	–	COC1(Cc2ccccc2Cl)CCN(c2ccc(C(=O)NS(=O)(=O)c3ccc(N[C@H](CCN(C)C)CSc4ccccc4)c([N+](=O)[O-])c3)cc2)CC1
2.5	300	–	–	–	CN(C)CC[C@H](CSc1ccccc1)Nc1ccc(S(=O)(=O)NC(=O)c2ccc(N3CCN(C(=O)Nc4ccccc4)CC3)cc2)cc1[N+](=O)[O-]
